What is called EC50 is the concentration needed to bring the measured effect to its halfway point.

These results are taken from patent US11382956B2, “Amylin analogues” (Zealand Pharma A/S, priority 2016, dated 2022).

Numbered stars: 1 amine (or outer) side, 2 acyl side, 3 side chain; on linkers, the order of the positions; unused ones are H or OH. Bridge positions count the residues as written; N and C are the ends. Square brackets hold non-standard residues; d marks the D form. Peptide text beside a SMILES is read from it. * marks the point of attachment. C20 diacid = O=C(O)CCCCCCCCCCCCCCCCCCC(=O)*; γGlu = O=C(O)[C@H](CCC(=O)[*:2])N[*:1]; Hyp = O=C(O)[C@@H]1C[C@@H](O)CN1; NMeI = CC[C@H](C)[C@H](NC)C(=O)O; Aad = N[C@@H](CCCC(=O)O)C(=O)O; Orn = NCCC[C@H](N)C(=O)O; Dap = NC[C@H](N)C(=O)O; Sar = CNCC(=O)O

The target of assay [1] is T1, recombinant human calcitonin receptor (hCT-R) (Homo sapiens, UniProt P30988).
T1 construct: host or cells: human astrocytoma cell line 1321N1
T1 sequence (P30988 25-474): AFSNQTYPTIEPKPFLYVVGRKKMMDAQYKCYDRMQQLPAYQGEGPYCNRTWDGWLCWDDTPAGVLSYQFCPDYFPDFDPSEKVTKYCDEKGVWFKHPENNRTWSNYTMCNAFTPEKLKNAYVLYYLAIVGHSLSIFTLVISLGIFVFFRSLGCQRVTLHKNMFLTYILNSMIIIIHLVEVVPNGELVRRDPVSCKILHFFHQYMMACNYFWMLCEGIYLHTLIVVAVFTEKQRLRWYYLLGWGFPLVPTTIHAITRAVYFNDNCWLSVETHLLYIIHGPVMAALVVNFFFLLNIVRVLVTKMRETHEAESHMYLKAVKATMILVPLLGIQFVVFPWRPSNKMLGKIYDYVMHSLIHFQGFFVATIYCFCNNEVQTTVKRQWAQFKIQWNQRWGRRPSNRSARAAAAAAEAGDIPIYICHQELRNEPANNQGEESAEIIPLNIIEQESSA
In words: hCT-R cAMP assay (AlphaScreen) in 1321N1 cells. The assay is classed as cell-based. Particulars: cAMP formation, 45 min stimulation. In a few lines:
(§1)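 EC50 values come from curve fits over at least 7 peptide concentrations, with cAMP read by AlphaScreen competition after 1 h in the dark. Cells were 1321N1 lines carrying human calcitonin receptor, with RAMP3 co-expressed for AMY3, treated 45 min at room temperature in the presence of IBMX.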

Assay [2] addresses T2, recombinant human amylin 3 receptor (hAMYR3) (Homo sapiens, UniProt O60896+P30988).
T2 construct: host or cells: human astrocytoma cell line 1321N1
T2 sequence (P30988 25-474): T1 sequence (P30988 25-474)
T2 sequence (O60896 24-148 partner): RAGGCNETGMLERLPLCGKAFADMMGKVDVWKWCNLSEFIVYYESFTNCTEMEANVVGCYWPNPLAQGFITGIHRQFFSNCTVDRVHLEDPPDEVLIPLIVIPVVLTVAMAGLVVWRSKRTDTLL
Briefly: hAMYR3 cAMP assay (AlphaScreen) in 1321N1 cells. Format: cell-based. The conditions noted are these: cAMP formation, 45 min stimulation. In a few lines: as §1
On the technique in general: Cyclic AMP is a second messenger, typically raised through Gs and lowered through Gi signalling.

Regarding `CC[C@H](C)[C@@H](C(=O)N[C@@H](CC(C)C)C(=O)N[C@@H](CO)C(=O)N[C@@H](CO)C(=O)N[C@H](C(=O)N[C@@H](CCC(=O)O)C(=O)N[C@H](C(=O)NCC(=O)N[C@@H](CO)C(=O)N[C@@H](CC(N)=O)C(=O)N[C@H](C(=O)N1C[C@H](O)C[C@H]1C(N)=O)[C@@H](C)O)C(C)C)[C@@H](C)O)N(C)C(=O)[C@H](C)NC(=O)CN(C)C(=O)[C@H](Cc1ccccc1)NC(=O)[C@H](CO)NC(=O)[C@H](CO)NC(=O)[C@H](CCCNC(=N)N)NC(=O)[C@H](CCC(N)=O)NC(=O)[C@H](CC(C)C)NC(=O)[C@H](Cc1ccccc1)NC(=O)[C@H](CCCC(=O)O)NC(=O)[C@H](C)NC(=O)[C@H](CC(C)C)NC(=O)[C@H](CCCNC(=N)N)NC(=O)[C@H](CCC(=O)O)NC(=O)[C@@H](NC(=O)[C@H](C)NC(=O)[C@@H]1CCCCNC(=O)C[C@H](NC(=O)[C@H](CCCNC(=N)N)NC(=O)CC[C@H](NC(=O)CCCCCCCCCCCCCCCCCCC(=O)O)C(=O)O)C(=O)N2CCC[C@H]2C(=O)N[C@@H]([C@@H](C)O)C(=O)N[C@@H](C)C(=O)N[C@@H]([C@@H](C)O)C(=O)N1)[C@@H](C)O` [Compound 29, [19CD]-isoGlu-RD()PTATK()ATERLA-Aad-FLQRSSF-Gly(Me)-A-Ile(Me)-LSSTEVGSNT-Hyp-NH2] ({C20 diacid-γGlu}-RDPTATKATERLA[Aad]FLQRSSF[Sar]A[NMeI]LSSTEVGSNT[Hyp]-NH2; lactam 2-7), the values for the EC50 in assay [1] and in assay [2] were 1.07 nM and 0.312 nM, respectively.

For `CC[C@H](C)[C@@H](C(=O)N[C@@H](CC(C)C)C(=O)N[C@@H](CO)C(=O)N[C@@H](CO)C(=O)N[C@H](C(=O)N[C@@H](CCC(=O)O)C(=O)N[C@H](C(=O)NCC(=O)N[C@@H](CO)C(=O)N[C@@H](CC(N)=O)C(=O)N[C@H](C(=O)N1C[C@H](O)C[C@H]1C(N)=O)[C@@H](C)O)C(C)C)[C@@H](C)O)N(C)C(=O)[C@H](C)NC(=O)CN(C)C(=O)[C@H](Cc1ccccc1)NC(=O)[C@H](CO)NC(=O)[C@H](CO)NC(=O)[C@H](CCCNC(=N)N)NC(=O)[C@H](CCC(N)=O)NC(=O)[C@H](CC(C)C)NC(=O)[C@H](Cc1ccccc1)NC(=O)[C@H](Cc1c[nH]cn1)NC(=O)[C@H](C)NC(=O)[C@H](CC(C)C)NC(=O)[C@H](CCCNC(=N)N)NC(=O)[C@H](CCC(=O)O)NC(=O)[C@@H](NC(=O)[C@H](C)NC(=O)[C@@H]1CNC(=O)C[C@H](NC(=O)[C@H](CCCNC(=N)N)NC(=O)CC[C@H](NC(=O)CCCCCCCCCCCCCCCCCCC(=O)O)C(=O)O)C(=O)NCC(=O)N[C@@H]([C@@H](C)O)C(=O)N[C@@H](C)C(=O)N[C@@H]([C@@H](C)O)C(=O)N1)[C@@H](C)O` [Compound 1, [19CD]-isoGlu-RD()GTAT-Dap()-ATERLAHFLQRSSF-Gly(Me)-A-Ile(Me)-LSSTEVGSNT-Hyp-NH2] ({C20 diacid-γGlu}-RDGTAT[Dap]ATERLAHFLQRSSF[Sar]A[NMeI]LSSTEVGSNT[Hyp]-NH2; lactam 2-7), the EC50 in assay [1] came out at 13.6 nM; in assay [2] it was 9.3 nM.

Turning to `CC[C@H](C)[C@@H](C(=O)N[C@@H](CC(C)C)C(=O)N[C@@H](CO)C(=O)N[C@@H](CO)C(=O)N[C@H](C(=O)N[C@@H](CCC(=O)O)C(=O)N[C@H](C(=O)NCC(=O)N[C@@H](CO)C(=O)N[C@@H](CC(N)=O)C(=O)N[C@H](C(=O)N1C[C@H](O)C[C@H]1C(N)=O)[C@@H](C)O)C(C)C)[C@@H](C)O)N(C)C(=O)[C@H](C)NC(=O)CN(C)C(=O)[C@H](Cc1ccccc1)NC(=O)[C@@H](NC(=O)CNC(=O)[C@H](CCCNC(=N)N)NC(=O)[C@H](CCC(N)=O)NC(=O)[C@H](CC(C)C)NC(=O)[C@H](Cc1ccccc1)NC(=O)[C@H](CCCC(=O)O)NC(=O)[C@H](C)NC(=O)[C@H](CC(C)C)NC(=O)[C@H](CCCNC(=N)N)NC(=O)[C@H](CCC(=O)O)NC(=O)[C@@H](NC(=O)[C@H](C)NC(=O)[C@@H]1CCCNC(=O)C[C@H](NC(=O)[C@H](CCCNC(=N)N)NC(=O)CC[C@H](NC(=O)CCCCCCCCCCCCCCCCCCC(=O)O)C(=O)O)C(=O)N[C@@H](CCC(N)=O)C(=O)N[C@@H]([C@@H](C)O)C(=O)N[C@@H](C)C(=O)N[C@@H]([C@@H](C)O)C(=O)N1)[C@@H](C)O)[C@@H](C)O` [Compound 28, [19CD]-isoGlu-RD()QTAT-Orn()-ATERLA-Aad-FLQRGTF-Gly(Me)-A-Ile(Me)-LSSTEVGSNT-Hyp-NH2] ({C20 diacid-γGlu}-RDQTAT[Orn]ATERLA[Aad]FLQRGTF[Sar]A[NMeI]LSSTEVGSNT[Hyp]-NH2; lactam 2-7), the EC50 in assay [1] is 1.23 nM; in assay [2], 0.268 nM.

Take `CC[C@H](C)[C@@H](C(=O)N1CCC[C@H]1C(=O)N[C@@H](CO)C(=O)N[C@@H](CO)C(=O)N[C@H](C(=O)N[C@@H](CCC(=O)O)C(=O)N[C@H](C(=O)NCC(=O)N[C@@H](CO)C(=O)N[C@@H](CC(N)=O)C(=O)N[C@H](C(=O)N1C[C@H](O)C[C@H]1C(N)=O)[C@@H](C)O)C(C)C)[C@@H](C)O)N(C)C(=O)[C@H](C)NC(=O)CN(C)C(=O)[C@H](Cc1ccccc1)NC(=O)[C@H](CO)NC(=O)[C@H](CO)NC(=O)[C@H](CCCNC(=N)N)NC(=O)[C@H](CCC(N)=O)NC(=O)[C@H](CC(C)C)NC(=O)[C@H](Cc1ccccc1)NC(=O)[C@H](Cc1c[nH]cn1)NC(=O)[C@H](C)NC(=O)[C@H](CC(C)C)NC(=O)[C@H](CCCNC(=N)N)NC(=O)[C@H](CCC(=O)O)NC(=O)[C@@H](NC(=O)[C@H](C)NC(=O)[C@H](CCCN)NC(=O)[C@@H](NC(=O)[C@H](C)NC(=O)[C@@H](NC(=O)CNC(=O)[C@H](CC(=O)O)NC(=O)[C@H](CCCNC(=N)N)NC(=O)CC[C@H](NC(=O)CCCCCCCCCCCCCCCCCCC(=O)O)C(=O)O)[C@@H](C)O)[C@@H](C)O)[C@@H](C)O` [Ref. 1, [19CD]-isoGlu-RDGTAT-Orn-ATERLAHFLQRSSF-Sar-A-Ile(Me)-PSSTEVGSNT-Hyp-NH2, reference compound] ({C20 diacid-γGlu}-RDGTAT[Orn]ATERLAHFLQRSSF[Sar]A[NMeI]PSSTEVGSNT[Hyp]-NH2): the EC50 in assay [1] was 20.3 nM; in assay [2], 17.1 nM.

Turning to `CC[C@H](C)[C@@H](C(=O)N[C@@H](CC(C)C)C(=O)N[C@@H](CO)C(=O)N[C@@H](CO)C(=O)N[C@H](C(=O)N[C@@H](CCC(=O)O)C(=O)N[C@H](C(=O)NCC(=O)N[C@@H](CO)C(=O)N[C@@H](CC(N)=O)C(=O)N[C@H](C(=O)N1C[C@H](O)C[C@H]1C(N)=O)[C@@H](C)O)C(C)C)[C@@H](C)O)N(C)C(=O)[C@H](C)NC(=O)CN(C)C(=O)[C@H](Cc1ccccc1)NC(=O)[C@H](CO)NC(=O)[C@H](CO)NC(=O)[C@H](CCCNC(=N)N)NC(=O)[C@H](CCC(N)=O)NC(=O)[C@H](CC(C)C)NC(=O)[C@H](Cc1ccccc1)NC(=O)[C@H](Cc1c[nH]cn1)NC(=O)[C@H](C)NC(=O)[C@H](CC(C)C)NC(=O)[C@H](CCCNC(=N)N)NC(=O)[C@H](CCC(=O)O)NC(=O)[C@@H](NC(=O)[C@H](C)NC(=O)[C@@H]1CC(=O)NCCC[C@H](NC(=O)[C@H](CCCNC(=N)N)NC(=O)CC[C@H](NC(=O)CCCCCCCCCCCCCCCCCCC(=O)O)C(=O)O)C(=O)NCC(=O)N[C@@H]([C@@H](C)O)C(=O)N[C@@H](C)C(=O)N[C@@H]([C@@H](C)O)C(=O)N1)[C@@H](C)O` [Compound 47, [19CD]-isoGlu-R-Orn()-GTATD()ATERLAHFLQRSSF-Gly(Me)-A-Ile(Me)-LSSTEVGSNT-Hyp-NH2] ({C20 diacid-γGlu}-R[Orn]GTATDATERLAHFLQRSSF[Sar]A[NMeI]LSSTEVGSNT[Hyp]-NH2; lactam 2-7), the EC50 was 10.8 nM in assay [1] and 7.7 nM in assay [2].

As to `CC[C@H](C)[C@@H](C(=O)N[C@@H](CC(C)C)C(=O)N[C@@H](CO)C(=O)N[C@@H](CO)C(=O)N[C@H](C(=O)N[C@@H](CCC(=O)O)C(=O)N[C@H](C(=O)NCC(=O)N[C@@H](CO)C(=O)N[C@@H](CC(N)=O)C(=O)N[C@H](C(=O)N1CCC[C@H]1C(N)=O)[C@@H](C)O)C(C)C)[C@@H](C)O)N(C)C(=O)[C@H](C)NC(=O)CN(C)C(=O)[C@H](Cc1ccccc1)NC(=O)[C@H](CO)NC(=O)[C@H](CO)NC(=O)[C@H](CCCNC(=N)N)NC(=O)[C@H](Cc1c[nH]cn1)NC(=O)[C@H](CC(C)C)NC(=O)[C@H](Cc1ccccc1)NC(=O)[C@H](Cc1c[nH]cn1)NC(=O)[C@H](C)NC(=O)[C@H](CC(C)C)NC(=O)[C@H](CCCNC(=N)N)NC(=O)[C@H](CCC(=O)O)NC(=O)[C@@H](NC(=O)[C@H](C)NC(=O)[C@@H]1CCCNC(=O)C[C@H](NC(=O)[C@H](CCCNC(=N)N)NC(=O)CC[C@H](NC(=O)CCCCCCCCCCCCCCCCCCC(=O)O)C(=O)O)C(=O)NCC(=O)N[C@@H]([C@@H](C)O)C(=O)N[C@@H](C)C(=O)N[C@@H]([C@@H](C)O)C(=O)N1)[C@@H](C)O` [Compound 7, [19CD]-isoGlu-RD()GTAT-Orn()-ATERLAHFLHRSSF-Gly(Me)-A-Ile(Me)-LSSTEVGSNTP-NH2] ({C20 diacid-γGlu}-RDGTAT[Orn]ATERLAHFLHRSSF[Sar]A[NMeI]LSSTEVGSNTP-NH2; lactam 2-7), the values for the EC50 in assay [1] and in assay [2] were 0.289 nM and 0.032 nM, respectively.
